From ChEMBL document CHEMBL5370592, “Synthesis and Structure-Activity Relationships of a New Class of Oxadiazoles Targeting DprE1 as Antitubercular Agents” (ACS Med Chem Lett, 2023)
In brackets after ≈: the same amount, converted by molar mass.

Legend:
Format in all cases: functional
[1] = test system: Mycobacterium tuberculosis; test: Antitubercular activity against extensively drug-resistant Mycobacterium tuberculosis 028K111 assessed as inhibition of bacterial growth incubated for 2 weeks; settings: 028K111, 336 h
[2] = test system: Mycobacterium tuberculosis; test: Antitubercular activity against isonizaid/rifampicin/rifabutin-resistant Mycobacterium tuberculosis NIHA37 assessed as inhibition of bacterial growth incubated for 2 weeks; settings: NIHA37, 336 h
[3] = test system: Mycobacterium tuberculosis; test: Antitubercular activity against ethionamide-resistant Mycobacterium tuberculosis NIH_G145 assessed as inhibition of bacterial growth incubated for 2 weeks; settings: NIH_G145, 336 h
[4] = test system: Mycobacterium tuberculosis; test: Antitubercular activity against isonizaid/rifampicin/ethambutol/rifabutin-resistant Mycobacterium tuberculosis NIH_G269DR assessed as inhibition of bacterial growth incubated for 2 weeks; settings: 336 h
[5] = test system: Mycobacterium tuberculosis; test: Antitubercular activity against isoniazid/rifampicin/streptomycin-resistant Mycobacterium tuberculosis clinical strain 01291696 assessed as inhibition of bacterial growth incubated for 2 weeks; settings: Mycobacterium tuberculosis, 01291696, 336 h
[6] = test system: Mycobacterium tuberculosis; test: Antitubercular activity against isoniazid/rifampicin/pyrazinamide/prothionamide/rifabutin/ofloxacin/moxifloxacin/levofloxacin-resistant Mycobacterium tuberculosis NIHB188 assessed as inhibition of bacterial growth incubated for 2 weeks; settings: NIHB188, 336 h
[7] = test system: Mycobacterium tuberculosis; test: Antitubercular activity against isonizaid/rifampicin/ethionamide/prothionamide-resistant Mycobacterium tuberculosis NIHA48 assessed as inhibition of bacterial growth incubated for 2 weeks; settings: NIHA48, 336 h
[8] = test system: Mycobacterium tuberculosis; test: Antitubercular activity against isoniazid/rifampicin/ethambutol/pyrazinamid/rifabutin/prothionamide-resistant Mycobacterium tuberculosis K25b00MR assessed as inhibition of bacterial growth incubated for 2 weeks; settings: 336 h
[9] = test system: Mycobacterium tuberculosis; test: Antitubercular activity against extensively drug-resistant Mycobacterium tuberculosis NIH1B250 assessed as inhibition of bacterial growth incubated for 2 weeks; settings: NIH1B250, 336 h
[10] = test system: Mycobacterium tuberculosis; test: Antitubercular activity against isoniazid/rifampicin/streptomycin/para-aminosalicylic acid/ofloxacin-resistant Mycobacterium tuberculosis K29b00MR assessed as inhibition of bacterial growth incubated for 2 weeks; settings: 336 h
[11] = test system: Mycobacterium tuberculosis; test: Antitubercular activity against isoniazid/rifampicin/ethambutol/pyrazinamide/streptomycin/kanamycin-resistant Mycobacterium tuberculosis K20b00MR assessed as inhibition of bacterial growth incubated for 2 weeks; settings: 336 h
[12] = test system: Mycobacterium tuberculosis; test: Antitubercular activity against streptomycin/D-cycloserine-resistant Mycobacterium tuberculosis NIH_G169 assessed as inhibition of bacterial growth incubated for 2 weeks; settings: NIH_G169, 336 h
[13] = test system: Mycobacterium tuberculosis; test: Antitubercular activity against isoniazid/rifampicin/ethambutol/rifabutin-resistant Mycobacterium tuberculosis K22b00MR assessed as inhibition of bacterial growth incubated for 2 weeks; settings: 336 h
[14] = test system: Mycobacterium tuberculosis; test: Antitubercular activity against isoniazid/rifampicin/ethambutol/streptomycin-resistant Mycobacterium tuberculosis K21b00MR assessed as inhibition of bacterial growth incubated for 2 weeks; settings: 336 h
[15] = test system: Mycobacterium tuberculosis; test: Antitubercular activity against isoniazid/ethambutol/prothionamide/D-cycloserine/ofloxacin/levofloxacin/pyrazinamide-resistant Mycobacterium tuberculosis NIH1B314 assessed as inhibition of bacterial growth incubated for 2 weeks; settings: NIH1B314, 336 h
[16] = test system: Mycobacterium tuberculosis; test: Antitubercular activity against isoniazid/rifampicin/moxifloxacin-resistant Mycobacterium tuberculosis NIH_G367DR assessed as inhibition of bacterial growth incubated for 2 weeks; settings: 336 h
[17] = test system: Mycobacterium tuberculosis; test: Antitubercular activity against isoniazid/rifampicin/ethambutol/rifabutin-resistant Mycobacterium tuberculosis K18b01MR assessed as inhibition of bacterial growth incubated for 2 weeks; settings: 336 h
[18] = test system: Mycobacterium tuberculosis; test: Antitubercular activity against isoniazid/rifampicin/ethambutol/pyrazinamide/rifabutin/prothionamide-resistant Mycobacterium tuberculosis NIHB302 assessed as inhibition of bacterial growth incubated for 2 weeks; settings: NIHB302, 336 h
[19] = test system: Mycobacterium tuberculosis; test: Antitubercular activity against isoniazid/rifampicin/para-aminosalicylic acid/ofloxacin/prothionamide-resistant Mycobacterium tuberculosis NIHB67 assessed as inhibition of bacterial growth incubated for 2 weeks; settings: NIHB67, 336 h
[20] = test system: Mycobacterium tuberculosis; test: Antitubercular activity against isonizaid/rifampicin/ethambutol/rifabutin/D-cycloserine-resistant Mycobacterium tuberculosis NIH_G21R assessed as inhibition of bacterial growth incubated for 2 weeks; settings: 336 h
[21] = test system: Mycobacterium tuberculosis; test: Antitubercular activity against isoniazid/rifampicin/ethambutol/pyrazinamide/streptomycin/kanamycin/para-aminosalicylic acid/prothionamide-resistant Mycobacterium tuberculosis K33b00MR assessed as inhibition of bacterial growth incubated for 2 weeks; settings: 336 h
[22] = test system: Mycobacterium tuberculosis; test: Antitubercular activity against isoniazid/prothionamide-resistant Mycobacterium tuberculosis NIHA38 assessed as inhibition of bacterial growth incubated for 2 weeks; settings: NIHA38, 336 h
[23] = test system: Mycobacterium tuberculosis; test: Antitubercular activity against extensively drug-resistant Mycobacterium tuberculosis clinical strain 00202293 assessed as inhibition of bacterial growth incubated for 2 weeks; settings: Mycobacterium tuberculosis, 00202293, 336 h
[24] = test system: Mycobacterium tuberculosis; test: Antitubercular activity against isoniazid/rifampicin/ethambutol/para-aminosalicylic acid/kanamycin/ofloxacin/prothionamide-resistant Mycobacterium tuberculosis Kb019 assessed as inhibition of bacterial growth incubated for 2 weeks; settings: Kb019, 336 h
[25] = test system: Mycobacterium tuberculosis; test: Antitubercular activity against isoniazid/rifampicin/ethambutol/pyrazinamid/rifabutin-resistant Mycobacterium tuberculosis K26b00MR assessed as inhibition of bacterial growth incubated for 2 weeks; settings: 336 h
[26] = test system: Mycobacterium tuberculosis; test: Antitubercular activity against isoniazid/prothionamide-resistant Mycobacterium tuberculosis NIHB140 assessed as inhibition of bacterial growth incubated for 2 weeks; settings: NIHB140, 336 h
[27] = test system: Mycobacterium tuberculosis; test: Antitubercular activity against extensively drug-resistant Mycobacterium tuberculosis clinical strain X37b00XR assessed as inhibition of bacterial growth incubated for 2 weeks; settings: 336 h
[28] = test system: Mycobacterium tuberculosis; test: Antitubercular activity against ethambutol/D-cycloserine-resistant Mycobacterium tuberculosis NIH_G11R assessed as inhibition of bacterial growth incubated for 2 weeks; settings: 336 h
[29] = test system: Mycobacterium tuberculosis; test: Antitubercular activity against isoniazid/rifampicin/kanamycin/pyrazinamide/capreomycin/amikacin/prothionamide/D-cycloserine-resistant Mycobacterium tuberculosis K32b00MR assessed as inhibition of bacterial growth incubated for 2 weeks; settings: 336 h
[30] = test system: Mycobacterium tuberculosis; test: Antitubercular activity against isoniazid/ofloxacin/prothionamide-resistant Mycobacterium tuberculosis NIH1B127 assessed as inhibition of bacterial growth incubated for 2 weeks; settings: NIH1B127, 336 h
[31] = test system: Mycobacterium tuberculosis; test: Antitubercular activity against isoniazid/rifampicin/para-aminosalicylic acid/pyrazinamide/prothionamide/rifabutin-resistant Mycobacterium tuberculosis NIHB68 assessed as inhibition of bacterial growth incubated for 2 weeks; settings: NIHB68, 336 h
[32] = test system: Mycobacterium tuberculosis; test: Antitubercular activity against extensively drug-resistant Mycobacterium tuberculosis NIH1B178 assessed as inhibition of bacterial growth incubated for 2 weeks; settings: NIH1B178, 336 h
[33] = test system: Mycobacterium tuberculosis; test: Antitubercular activity against isoniazid/rifampicin/ethambutol/rifabutin-resistant Mycobacterium tuberculosis NIH_G10R assessed as inhibition of bacterial growth incubated for 2 weeks; settings: 336 h
[34] = test system: Mycobacterium tuberculosis; test: Antitubercular activity against isonizaid/rifampicin/ethambutol/rifabutin-resistant Mycobacterium tuberculosis NIH_G22R assessed as inhibition of bacterial growth incubated for 2 weeks; settings: 336 h
[35] = test system: Mycobacterium tuberculosis; test: Antitubercular activity against extensively drug-resistant Mycobacterium tuberculosis NIHB13 assessed as inhibition of bacterial growth incubated for 2 weeks; settings: NIHB13, 336 h
[36] = test system: Mycobacterium tuberculosis; test: Antitubercular activity against isoniazid/rifampicin/ethambutol/streptomycin/D-cycloserine/rifabutin-resistant Mycobacterium tuberculosis NIH_G19R assessed as inhibition of bacterial growth incubated for 2 weeks; settings: 336 h
[37] = test system: Mycobacterium tuberculosis; test: Antitubercular activity against isoniazid/rifampicin/moxifloxacin-resistant Mycobacterium tuberculosis NIH_G76MR assessed as inhibition of bacterial growth incubated for 2 weeks; settings: 336 h
[38] = test system: Mycobacterium tuberculosis; test: Antitubercular activity against isoniazid/ethionamide/D-cycloserine-resistant Mycobacterium tuberculosis NIH_G17R assessed as inhibition of bacterial growth incubated for 2 weeks; settings: 336 h
[39] = test system: Mycobacterium tuberculosis; test: Antitubercular activity against extensively drug-resistant Mycobacterium tuberculosis 026K111 assessed as inhibition of bacterial growth incubated for 2 weeks; settings: 026K111, 336 h
[40] = test system: Mycobacterium tuberculosis; test: Antitubercular activity against rifampicin/isoniazid/streptomycin/prothionamide-resistant Mycobacterium tuberculosis NIHB43 assessed as inhibition of bacterial growth incubated for 2 weeks; settings: NIHB43, 336 h
[41] = test system: Mycobacterium tuberculosis; test: Antitubercular activity against isoniazid/ethionamide-resistant Mycobacterium tuberculosis NIH1B21 assessed as inhibition of bacterial growth incubated for 2 weeks; settings: NIH1B21, 336 h
[42] = test system: Mycobacterium tuberculosis; test: Antitubercular activity against isoniazid/rifampicin/ethambutol/pyrazinamide/prothionamide/ofloxacin/levofloxacin/rifabutin-resistant Mycobacterium tuberculosis NIHB270 assessed as inhibition of bacterial growth incubated for 2 weeks; settings: NIHB270, 336 h
[43] = test system: Mycobacterium tuberculosis; test: Antitubercular activity against isonizaid/rifampicin/streptomycin/ethionamide-resistant Mycobacterium tuberculosis NIH_G79 assessed as inhibition of bacterial growth incubated for 2 weeks; settings: NIH_G79, 336 h

## O=C(C1CCN(c2nnc(-c3ccccc3)o2)CC1)N1CCC(Cc2ccccc2)CC1
[1]
  MIC: 1.56 µM (≈ 0.672 µg/mL)
[2]
  MIC: 0.39 µM (≈ 0.168 µg/mL)
[3]
  MIC: 1.2 µM (≈ 0.517 µg/mL)
[4]
  MIC: 1.2 µM (≈ 0.517 µg/mL)
[5]
  MIC: 0.78 µM (≈ 0.336 µg/mL)
[6]
  MIC: 0.6 µM (≈ 0.258 µg/mL)
[7]
  MIC: 1.56 µM (≈ 0.672 µg/mL)
[8]
  MIC: 1.2 µM (≈ 0.517 µg/mL)
[9]
  MIC: 2.3 µM (≈ 0.99 µg/mL)
[10]
  MIC: 1.2 µM (≈ 0.517 µg/mL)
[11]
  MIC: 4.7 µM (≈ 2.02 µg/mL)
[12]
  MIC: 0.39 µM (≈ 0.168 µg/mL)
[13]
  MIC: 1.56 µM (≈ 0.672 µg/mL)
[14]
  MIC: 1.2 µM (≈ 0.517 µg/mL)
[15]
  MIC: 3.13 µM (≈ 1.35 µg/mL)
[16]
  MIC: 3.13 µM (≈ 1.35 µg/mL)
[17]
  MIC: 1.56 µM (≈ 0.672 µg/mL)
[18]
  MIC: 0.78 µM (≈ 0.336 µg/mL)
[19]
  MIC: 0.78 µM (≈ 0.336 µg/mL)
[20]
  MIC: 2.3 µM (≈ 0.99 µg/mL)
[21]
  MIC: 2.3 µM (≈ 0.99 µg/mL)
[22]
  MIC: 0.39 µM (≈ 0.168 µg/mL)
[23]
  MIC: 1.56 µM (≈ 0.672 µg/mL)
[24]
  MIC: 4.7 µM (≈ 2.02 µg/mL)
[25]
  MIC: 1.2 µM (≈ 0.517 µg/mL)
[26]
  MIC: 0.6 µM (≈ 0.258 µg/mL)
[27]
  MIC: 3.13 µM (≈ 1.35 µg/mL)
[28]
  MIC: 0.6 µM (≈ 0.258 µg/mL)
[29]
  MIC: 1.56 µM (≈ 0.672 µg/mL)
[30]
  MIC: 0.39 µM (≈ 0.168 µg/mL)
[31]
  MIC: 0.39 µM (≈ 0.168 µg/mL)
[32]
  MIC: 0.78 µM (≈ 0.336 µg/mL)
[33]
  MIC: 0.6 µM (≈ 0.258 µg/mL)
[34]
  MIC: 1.2 µM (≈ 0.517 µg/mL)
[35]
  MIC: 0.78 µM (≈ 0.336 µg/mL)
[36]
  MIC: 1.56 µM (≈ 0.672 µg/mL)
[37]
  MIC: 1.2 µM (≈ 0.517 µg/mL)
[38]
  MIC: 0.6 µM (≈ 0.258 µg/mL)
[39]
  MIC: 1.56 µM (≈ 0.672 µg/mL)
[40]
  MIC: 0.78 µM (≈ 0.336 µg/mL)
[41]
  MIC: 1.56 µM (≈ 0.672 µg/mL)
[42]
  MIC: 1.56 µM (≈ 0.672 µg/mL)
[43]
  MIC: 1.56 µM (≈ 0.672 µg/mL)
